# pIC50: −log10 of the molar value. Counter-ions that a name gives are not always drawn.
# Target: T1, human αVβ6 (Homo sapiens, UniProt P06756+P18564)
# T1 construct: purchased R & D systems 3817-AV
# Experiment: human αVβ6 HTRF binding assay
# Conditions: recombinant human αVβ6 integrin, FITC-conjugated fibronectin
# How it was run: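 HTRF binding in 20 mM Tris pH 7.4 with 1 mM MgCl2, 1 mM MnCl2, 0.01% Tween 20 and 0.01% BSA. For αVβ6, biotinylated integrin (1.25 nM) and FITC-fibronectin (5 nM) were incubated 1 h at RT, then streptavidin-terbium (0.625 nM) was added overnight in the dark. An SPA-based fibronectin binding format was an alternative.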
# T1 sequence (P06756 31-992 limits assumed): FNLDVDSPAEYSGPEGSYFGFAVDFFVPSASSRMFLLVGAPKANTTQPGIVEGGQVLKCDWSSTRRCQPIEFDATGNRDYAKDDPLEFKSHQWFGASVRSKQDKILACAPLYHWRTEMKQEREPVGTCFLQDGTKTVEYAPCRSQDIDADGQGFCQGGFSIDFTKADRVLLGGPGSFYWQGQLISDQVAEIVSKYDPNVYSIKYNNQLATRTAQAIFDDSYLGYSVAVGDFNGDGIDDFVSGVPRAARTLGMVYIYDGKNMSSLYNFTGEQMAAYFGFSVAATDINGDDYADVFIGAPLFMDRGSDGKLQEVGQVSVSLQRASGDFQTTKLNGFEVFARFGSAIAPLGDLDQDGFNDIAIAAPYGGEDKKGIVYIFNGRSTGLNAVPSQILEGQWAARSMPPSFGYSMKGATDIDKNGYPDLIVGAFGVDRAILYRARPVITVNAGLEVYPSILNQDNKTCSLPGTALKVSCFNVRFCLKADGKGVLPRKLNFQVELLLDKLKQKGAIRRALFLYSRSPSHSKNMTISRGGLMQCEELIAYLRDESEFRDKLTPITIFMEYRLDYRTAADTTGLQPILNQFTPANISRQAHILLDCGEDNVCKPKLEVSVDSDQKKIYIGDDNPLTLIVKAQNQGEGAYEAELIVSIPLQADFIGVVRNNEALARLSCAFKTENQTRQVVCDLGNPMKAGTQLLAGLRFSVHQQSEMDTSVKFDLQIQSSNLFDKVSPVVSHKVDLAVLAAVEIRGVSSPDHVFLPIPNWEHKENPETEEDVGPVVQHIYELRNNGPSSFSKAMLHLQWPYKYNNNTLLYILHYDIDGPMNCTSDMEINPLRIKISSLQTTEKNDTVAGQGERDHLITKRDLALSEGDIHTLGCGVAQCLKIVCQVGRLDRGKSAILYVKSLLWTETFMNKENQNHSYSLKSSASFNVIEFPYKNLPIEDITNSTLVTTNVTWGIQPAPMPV
# T1 sequence (P18564 22-707 limits assumed): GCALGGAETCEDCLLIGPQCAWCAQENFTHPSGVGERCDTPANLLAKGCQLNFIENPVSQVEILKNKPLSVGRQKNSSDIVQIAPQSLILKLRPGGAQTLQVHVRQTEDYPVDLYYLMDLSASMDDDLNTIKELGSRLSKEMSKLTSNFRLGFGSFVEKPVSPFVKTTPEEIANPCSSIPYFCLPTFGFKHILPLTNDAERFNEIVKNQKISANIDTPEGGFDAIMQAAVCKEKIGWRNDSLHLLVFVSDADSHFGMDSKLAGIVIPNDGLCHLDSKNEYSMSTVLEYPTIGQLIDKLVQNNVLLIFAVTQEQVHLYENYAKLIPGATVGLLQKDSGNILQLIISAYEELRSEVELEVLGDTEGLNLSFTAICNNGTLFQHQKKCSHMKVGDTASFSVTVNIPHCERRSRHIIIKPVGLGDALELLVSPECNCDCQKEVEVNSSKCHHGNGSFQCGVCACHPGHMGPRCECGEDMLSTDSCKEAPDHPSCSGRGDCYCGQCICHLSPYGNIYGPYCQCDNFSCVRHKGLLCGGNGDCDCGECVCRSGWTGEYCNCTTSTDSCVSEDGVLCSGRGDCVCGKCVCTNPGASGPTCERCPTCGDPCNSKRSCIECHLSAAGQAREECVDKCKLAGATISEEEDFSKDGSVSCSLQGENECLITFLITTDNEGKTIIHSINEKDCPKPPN
row,SMILES,pIC50
1,"CN(C)C(=O)c1cccc([C@H](CC(=O)O)n2ncc3cc(OCCc4ccc5c(n4)NCCC5)ccc32)c1 [Example 38, (S)-3-(3-(Dimethylcarbamoyl)phenyl)-3-(5-(2-(5,6,7,8-tetrahydro-1,8-naphthyridin-2-yl)ethoxy)-1H-indazol-1-yl)propanoic acid]",8.38
2,"O=C(O)CC(c1cnc2ccccc2n1)n1ncc2c(OCCc3ccc4c(n3)NCCC4)cccc21 (stereo not shown) [Example 33, 3-(Quinoxalin-2-yl)-3-(4-(2-(5,6,7,8-tetrahydro-1,8-naphthyridin-2-yl)ethoxy)-1H-indazol-1-yl)propanoic acid]",5.80
3,"O=C(O)C[C@H](c1cccc(N2CCCC2=O)c1)n1ncc2cc(OCCc3ccc4c(n3)NCCC4)ccc21 [Example 85, (R)-3-(3-(2-Oxopyrrolidin-1-yl)phenyl)-3-(5-(2-(5,6,7,8-tetrahydro-1,8-naphthyridin-2-yl)ethoxy)-1H-indazol-1-yl)propanoic acid, TFA]",8.60
4,"CS(=O)(=O)c1cncc(C(CC(=O)O)n2ncc3cc(OCCc4ccc5c(n4)NCCC5)ccc32)c1 (stereo not shown) [Example 125, 3-(5-(Methylsulfonyl)pyridin-3-yl)-3-(5-(2-(5,6,7,8-tetrahydro-1,8-naphthyridin-2-yl)ethoxy)-1H-indazol-1-yl)propanoic acid, 2 TFA]",8.33
5,"COc1ccc([C@H](CC(=O)O)n2ncc3cc(OCCc4ccc5c(n4)NCCO5)ccc32)cn1 [Example 180, (S)-3-(5-(2-(3,4-dihydro-2H-pyrido[3,2-b][1,4]oxazin-6-yl)ethoxy)-1H-indazol-1-yl)-3-(6-methoxypyridin-3-yl)propanoic acid]",7.82
6,"COc1ccc(C(CC(=O)O)n2ncc3cc(CCc4ccc5c(n4)NCCC5)ccc32)cn1 (stereo not shown) [Example 2, 3-(6-Methoxypyridin-3-yl)-3-(5-(2-(5,6,7,8-tetrahydro-1,8-naphthyridin-2-yl)ethyl)-1H-indazol-1-yl)propanoic acid]",6.96
7,"O=C(O)CC(c1cnc2ccccc2n1)n1ncc2cc(CCCc3ccc4c(n3)NCCC4)ccc21 (stereo not shown) [Example 22, 3-(Quinoxalin-2-yl)-3-(5-(3-(5,6,7,8-tetrahydro-1,8-naphthyridin-2-yl)propyl)-1H-indazol-1-yl)propanoic acid]",6.72
8,"O=C(O)CC(c1cncc(N2CCCC2)c1)n1ncc2cc(OCCc3ccc4c(n3)NCCC4)ccc21 (stereo not shown) [Example 127, 3-(5-(Pyrrolidin-1-yl)pyridin-3-yl)-3-(5-(2-(5,6,7,8-tetrahydro-1,8-naphthyridin-2-yl)ethoxy)-1H-indazol-1-yl)propanoic acid, 3 TFA]",8.21
9,"CCN1CCn2c(C(CC(=O)O)n3ncc4cc(OCCc5ccc6c(n5)NCCC6)ccc43)cnc2C1 (stereo not shown) [Example 122, 3-(7-Ethyl-5,6,7,8-tetrahydroimidazo[1,2-a]pyrazin-3-yl)-3-(5-(2-(5,6,7,8-tetrahydro-1,8-naphthyridin-2-yl)ethoxy)-1H-indazol-1-yl)propanoic acid]",7.85
10,"CCCCCC(CC(=O)O)n1ncc2cc(OCCc3ccc4c(n3)NCCC4)ccc21 (stereo not shown) [Example 46, 3-(5-(2-(5,6,7,8-Tetrahydro-1,8-naphthyridin-2-yl)ethoxy)-1H-indazol-1-yl)octanoic acid, TFA]",6.48
11,"O=C(N[C@@H](Cn1cc2cc(OCCc3ccc4c(n3)NCCC4)ccc2n1)C(=O)O)OCc1ccccc1 [Example 4, (S)-2-(((Benzyloxy)carbonyl)amino)-3-(5-(2-(5,6,7,8-tetrahydro-1,8-naphthyridin-2-yl)ethoxy)-2H-indazol-2-yl)propanoic acid]",7.68
12,"O=C(O)CC(c1cnn(-c2ccncc2)c1)n1ncc2cc(OCCc3ccc4c(n3)NCCC4)ccc21 (stereo not shown) [Example 135, 3-(1-(Pyridin-4-yl)-1H-pyrazol-4-yl)-3-(5-(2-(5,6,7,8-tetrahydro-1,8-naphthyridin-2-yl)ethoxy)-1H-indazol-1-yl)propanoic acid]",8.42
13,"COc1ccc([C@H](CC(=O)O)n2cc3ccc(CCc4cc5c(nc4C)NCCC5)cc3n2)cn1 [Example 10, (S)-3-(6-Methoxypyridin-3-yl)-3-(6-(2-(2-methyl-5,6,7,8-tetrahydro-1,8-naphthyridin-3-yl)ethyl)-2H-indazol-2-yl)propanoic acid]",6.80
14,"O=C(O)CC(c1cncc(N2CCOCC2)c1)n1ncc2cc(OCCc3ccc4c(n3)NCCC4)ccc21 (stereo not shown) [Example 124, 3-(5-Morpholinopyridin-3-yl)-3-(5-(2-(5,6,7,8-tetrahydro-1,8-naphthyridin-2-yl)ethoxy)-1H-indazol-1-yl)propanoic acid, 3 TFA]",8.72
15,"COc1ccc(C(CC(=O)O)n2ncc3nc(OCCc4ccc5c(n4)NCCC5)ccc32)cn1 (stereo not shown) [Example 11, 3-(6-Methoxypyridin-3-yl)-3-(5-(2-(5,6,7,8-tetrahydro-1,8-naphthyridin-2-yl)ethoxy)pyrazolo[4,3-b]pyridin-1-yl)propanoic acid]",6.92
16,"O=C(O)CC(c1ccn2cnnc2c1)n1ncc2cc(OCCc3ccc4c(n3)NCCC4)ccc21 (stereo not shown) [Example 130, 3-([1,2,4]Triazolo[4,3-a]pyridin-7-yl)-3-(5-(2-(5,6,7,8-tetrahydro-1,8-naphthyridin-2-yl)ethoxy)-1H-indazol-1-yl)propanoic acid]",7.24

row,SMILES,pIC50
1,"CCCn1cc(C(CC(=O)O)n2ncc3cc(OCCc4ccc5c(n4)NCCC5)ccc32)cn1 (stereo not shown) [Example 63, 3-(1-Propylpyrazol-4-yl)-3-(5-(2-(5,6,7,8-tetrahydro-1,8-naphthyridin-2-yl)ethoxy)-1H-indazol-1-yl)propanoic acid, TFA]",7.26
2,"O=C(NC(Cn1ncc2cc(OCCc3ccc4c(n3)NCCC4)ccc21)C(=O)O)OCc1ccccc1 (stereo not shown) [Example 14, 2-(((Benzyloxy)carbonyl)amino)-3-(5-(2-(5,6,7,8-tetrahydro-1,8-naphthyridin-2-yl)ethoxy)-1H-indazol-1-yl)propanoic acid]",6.52
3,"CN(C)CCNC(=O)c1cncc(C(CC(=O)O)n2ncc3cc(OCCc4ccc5c(n4)NCCC5)ccc32)c1 (stereo not shown) [Example 158, 3-(5-((2-(dimethylamino)ethyl)carbamoyl)pyridin-3-yl)-3-(5-(2-(5,6,7,8-tetrahydro-1,8-naphthyridin-2-yl)ethoxy)-1H-indazol-1-yl)propanoic acid]",7.89
4,"CCOc1ncc([C@@H](CC(=O)O)n2ncc3cc(OCCc4ccc5c(n4)NCCC5)ccc32)cn1 [Example 108, (R)-3-(2-Ethoxypyrimidin-5-yl)-3-(5-(2-(5,6,7,8-tetrahydro-1,8-naphthyridin-2-yl)ethoxy)-1H-indazol-1-yl) propanoic acid, TFA]",6.41
5,"COc1ncc([C@@H](CC(=O)O)n2ncc3cc(OCCc4ccc5c(n4)NCCC5)ccc32)cn1 [Example 147, (R)-3-(2-methoxypyrimidin-5-yl)-3-(5-(2-(5,6,7,8-tetrahydro-1,8-naphthyridin-2-yl)ethoxy)-1H-indazol-1-yl)propanoic acid]",6.21
6,"O=C(O)CC(c1ccc2cnccc2c1)n1ncc2cc(OCCc3ccc4c(n3)NCCC4)ccc21 (stereo not shown) [Example 94, 3-(Isoquinolin-6-yl)-3-(5-(2-(5,6,7,8-tetrahydro-1,8-naphthyridin-2-yl)ethoxy)-1H-indazol-1-yl) propanoic acid, 2 TFA]",7.89
7,"O=C(O)CC(c1ccc2c(n1)NCCO2)n1ncc2cc(OCCc3ccc4c(n3)NCCC4)ccc21 (stereo not shown) [Example 91, 3-(3,4-Dihydro-2H-pyrido[3,2-b][1,4]oxazin-6-yl)-3-(5-(2-(5,6,7,8-tetrahydro-1,8-naphthyridin-2-yl)ethoxy)-1H-indazol-1-yl)propanoic acid, 2 TFA]",7.51
8,"CS(=O)(=O)c1cncc([C@H](CC(=O)O)n2ncc3cc(OCCc4ccc5c(n4)NCCC5)ccc32)c1 [Example 166, (S)-3-(5-(methylsulfonyl)pyridin-3-yl)-3-(5-(2-(5,6,7,8-tetrahydro-1,8-naphthyridin-2-yl)ethoxy)-1H-indazol-1-yl)propanoic acid]",8.28
9,"Cn1cnc2cc(C(CC(=O)O)n3ncc4cc(OCCc5ccc6c(n5)NCCC6)ccc43)cnc21 (stereo not shown) [Example 126, 3-(3-Methyl-3H-imidazo[4,5-b]pyridin-6-yl)-3-(5-(2-(5,6,7,8-tetrahydro-1,8-naphthyridin-2-yl)ethoxy)-1H-indazol-1-yl)propanoic acid, 2 TFA]",7.68
10,"O=C(O)CC(c1cnc2ccccc2n1)n1ncc2c(CCCc3ccc4c(n3)NCCC4)cccc21 (stereo not shown) [Example 19, 3-(Quinoxalin-2-yl)-3-(4-(3-(5,6,7,8-tetrahydro-1,8-naphthyridin-2-yl)propyl)-1H-indazol-1-yl)propanoic acid]",6.66
11,"CN(C)C(=O)c1cccc(C(CC(=O)O)n2ncc3cc(CCCc4ccc5c(n4)NCCC5)ccc32)c1 (stereo not shown) [Example 23, 3-(3-(Dimethylcarbamoyl)phenyl)-3-(5-(3-(5,6,7,8-tetrahydro-1,8-naphthyridin-2-yl)propyl)-1H-indazol-1-yl)propanoic acid]",7.21
12,"Cc1ncc([C@@H](CC(=O)O)n2ncc3cc(OCCc4ccc5c(n4)N[C@@H](C)CC5)ccc32)cn1 (single isomer, unassigned) [Example 177]",5.30
13,"COc1ccc([C@H](CC(=O)O)n2cc3cc(OCCc4ccc5c(n4)NCCC5)ccc3n2)cn1 [Example 6, (S)-3-(6-Methoxypyridin-3-yl)-3-(5-(2-(5,6,7,8-tetrahydro-1,8-naphthyridin-2-yl)ethoxy)-2H-indazol-2-yl)propanoic acid]",6.22
14,"COc1ccc(C(CC(=O)O)n2nc(C)c3cc(OCCc4ccc5c(n4)NCCC5)ccc32)cn1 (stereo not shown) [Example 70, 3-(6-Methoxypyridin-3-yl)-3-(3-methyl-5-(2-(5,6,7,8-tetrahydro-1,8-naphthyridin-2-yl)ethoxy)-1H-indazol-1-yl)propanoic acid]",6.02
15,"O=C(N[C@@H](Cn1cc2cc(OCc3ccc4c(n3)NCCC4)ccc2n1)C(=O)O)OCc1ccccc1 [Example 98, (S)-2-(((Benzyloxy)carbonyl)amino)-3-(5-((5,6,7,8-tetrahydro-1,8-naphthyridin-2-yl)methoxy)-2H-indazol-2-yl)propanoic acid]",6.80
